Where two headings read alike, the source gives them in different places. Blank lines part the entries; values can stand above or below the compound they belong to.
How the values were obtained:
ob/ob and db/db mice = settings: 8 day administration; cited from earlier work
[1] = Example 5: blood pressure in patient with hypertension; type: in vivo, human; settings: 100 mg daily for three months
Source text: A patient is diagnosed with hypertension. […] The patient's blood pressure decreases by 10%.

[2] = Example 4: maintenance of weight loss after diet; type: in vivo, human; settings: 100 mg daily
Source text: A patient successfully loses 24 pounds.

[3] = Example 1: non-diabetic subject, blood panel after 6 months; type: in vivo, human
Protocol: A non-diabetic subject is given 100 mg anhydrous enol-oxaloacetic acid in solid form for a period of 6 months to reduce blood triglycerides and glucose levels. AMPK is activated and the treatment is effective.

[4] = Example 3: body weight of obese patient over three months; type: in vivo, human
Source text: AMPK is activated and the patient drops in weight from 258 to 234 pounds in a three month period. The patient is no longer obese.

[5] = Stability and shelf life of oxaloacetic acid forms; settings: for stability / shelf life at room temperature: kept dry, reduced water content
Source text: (§1) The keto-oxaloacetate decarboxylates quickly to pyruvate. As the keto-oxaloacetate form disappears due to decarboxylation, the enol and hydrated form convert to keto-oxaloacetate, and then also decarboxylate into carbon dioxide and pyruvate, until all the oxaloacetate is consumed. Note that neither of the byproducts of oxaloacetate decarboxylation, carbon dioxide and pyruvate, are effective in activating AMPK.
(§2) The keto-oxaloacetate decarboxylates quickly, followed by enol conversion to keto form and further decarboxylation. […] Na-OAA has no shelf life, and is not available commercially.
There is an energy gap between the enol and keto form which is bridged when the compounds are exposed to water, however, this same energy gap prevents the conversion of the enol to keto form when the product is kept dry. Once there is a conversion to the keto form, decarboxylation can spontaneously occur at temperatures above the freezing point of water. […] Drying effectiveness can be increased by increasing the drying time, drying under vacuum, by using anhydrous washes of isopropyl alcohol or ethyl alcohol to absorb the remaining water (and then evaporating the alcohol), or by performing multiple washes with hexane or non-water soluble solvent to physically remove the water, typically after an alcohol wash. The non-water soluble solvent would then be evaporated off. […] Hexane is a residual solvent in many commercial food preparations including decaffeinated coffee, and is not toxic in small quantities. Alternatively, the final wash can be performed with liquefied propane, liquefied butane, ethyl acetate, ethane, carbon dioxide, or nitrous oxide to reduce the water content.
Biochem., vol. 26, pp. 418-421, 1950, also in Heidelberger; “The Synthesis of Oxalacetic Acid-1-C14 and Orotic Acid-6-C14”, Biochem. Prepn. 3, 59 (1953) pp 4704-4706.

[6] = Example 2: fasting blood glucose tracked for several weeks; type: in vivo, human; settings: 100 mg daily
Source text: The amplitude of the patient's swings in fasting glucose decrease by 55% due to improved glucose homeostasis. AMPK is activated and overall fasting glucose levels drop by 8%. The data is shown in Graph 3.

[7] = Hydrated/keto/enol composition in water; type: physicochemical; settings: pH 6.9 (oxaloacetic acid), Na-OAA dissolved in water
Source text: The oxaloacetate can be in three forms depending on the pH of the solution. At low pH (<1.5) and low temperature (<4 degrees C.) oxaloacetate hydrates. […] The hydrated form is mostly converted once it enters the higher pH of the body outside of the intestinal tract to the keto and enol form. […] Enol-oxaloacetate is convert to keto-oxaloacetate with the enzyme enol-keto tautomerase, a ubiquitous enzyme throughout the human body.
as §1, §2

mouse = tested on: mouse
Source text: (§3) I have investigated the toxicity of OAA in an acute study and two chronic studies.
(§4) The dose ratio between toxic and therapeutic effects is the therapeutic index and it can be expressed as the ratio LD50/ED50.

[8] = Blood-brain barrier penetration
Source text: AMPK activation has been associated with reduced Alzheimer risk and potentially with Alzheimer's treatment (Richter, Erik and Ruderman, Neil, “AMPK and the biochemistry of exercise: implications for human health and disease” Biochem. J. (2009) 418, 261-275). Thus OAA may be used for reducing the risk of Alzheimer's disease and for treatment of the same.

[9] = tested on: human A549 lung cancer tissue; settings: uM levels, contact solution of 76 uM; not within normal tissue; cancer tissue unable to reproduce for six weeks; cited from earlier work
in vivo = settings: rat
Source text: as §3, §4

[10] = Removal of orally consumed oxaloacetic acid from blood stream into cells; type: in vivo, human
Protocol: The oxaloacetic acid is converted to the ionic form oxaloactate in the digestive tract, and is then absorbed into the body and is distributed throughout the body via the bloodstream. […] At time 0, the amount detected was 0 ug/100 ml blood, at time 30 minutes 0 ug/100 ml blood, and at time 60 minutes ranged from […] blood. […] Within the cells the oxaloacetate reacts into L-malate as it encounters the enzyme malate dehydrogenase (MDH). MDH is ubiquitous in human cells, and the conversion of oxaloacetate to malate is very energetically favorable (the Gibbs Free Energy, delta G, is highly negative (−29.7) indicating the reaction is very favorable to proceed). As oxaloacetate is converted to malate, NADH is converted to NAD+. The resulting increase in the NAD+/NADH ratio leads to the phosphorylation (activation) of AMPK (Rafaeloff-Phail R, Ding L, Conner L, et al. “Biochemical regulation of mammalian AMP-activated protein Kinase activity by NAD and NADH”. J Biol Chem 2004; 279: 52934-9). AMPK serves to stimulate glucose uptake into the skeltal tissues and thereby reduces glucose levels. The immediate reduction is best seen with a glucose tolerance test in individuals that have defective leptin signaling (including overweight and obese persons) that are fasting. […]

[11] = 21 diabetic patients, cited from earlier work
older mice = assay: Chronic eighteen-month study in older mice; type: in vivo; settings: 380 mg OAA/kg of mouse, eighteen months
C. elegans = C. elegans lifespan with functional and non-functional AMPK; type: in vivo, Caenorhabditis elegans; settings: for lifespan of worms with non-functional alpha AMPK subunit: dysfunctional aak-2 subunit; for lifespan of worms with non-functional alpha AMPK subunit / increase of lifespan: 8 mM oxaloacetate; for increase of lifespan: worms with functional FOXO/DAF-16 and AMPK, p<0.001
Protocol: I have assayed the CR mimetic OAA for AMPK activation by using the worm C. elegans containing a non-functional alpha AMPK subunit, and have compared lifespan with and without the functional AMPK subunit. […] Graph 1 is the Kaplan-Meyer survival curves for worms with functional and non-functional AMPK showing the difference in lifespan.
AMPK activation is necessary to increase lifespan of C. elegans when exposed to 8 mM concentrations of oxaloacetate. The increase in lifespan averages approximately 25%, p<0.001.

[12] = Glucose related effects of supplementation in humans; type: in vivo, human; settings: non-diabetic patients
Source text: Glucose related effects in humans have measured an 8 to 10% drop in fasting glucose levels in non-diabetic patients, a drop in triglyceride levels by 10% and a 55% reduction in the amplitude of fasting blood glucose levels.

rats = settings: cited from earlier work
[13] = Decrease (Improvement), February to August 2007

SMILES: NC(=O)c1ncn([C@@H]2O[C@H](CO)[C@@H](O)[C@H]2O)c1N [AICAR, 5-Aminoimidazole-4-darboxamide ribonucleoside]
reduction of blood glucose (ob/ob and db/db mice): 35%

SMILES: O=C(O)CC(=O)C(=O)O [anhydrous enol-oxaloacetic acid]
decrease of blood pressure [1]: 10% | liver genes Acaa1, Cnbp, Fasn, Idil, Ndufabl, Pcx, Sc5d (human homologues) [2]: down regulates | regain of weight lost ([2]; one-year period after the diet, 24 pounds lost): does not regain the weight lost | Glucose Fasting, August 2007 ([3]; 100 mg daily for 6 months, February 2007 baseline 97): 89 mg/dL | Glucose Fasting % Change [3, 13]: 8.25% | Triglyceride % Change [3, 13]: 8.93% | Creatinine, August 2007 ([3]; after 6 months, baseline 1): 0.9 mg/dL | TSH, August 2007 ([3]; after 6 months, baseline 1.41): 1.32 uIU/ml | Albumin, August 2007 ([3]; after 6 months, baseline 4.4): 4.2 g/dL | K (Potassium), August 2007 ([3]; after 6 months, baseline 4.6): 4.5 mEq/L | Bun-Ser, August 2007 ([3]; after 6 months, baseline 14): 12 mg/dL | AST (SGOT), August 2007 ([3]; after 6 months, baseline 16): 15 IU/L | Lipase, August 2007 ([3]; after 6 months, baseline 17): 19 u/l | CO2 (Carbon Dioxide), August 2007 ([3]; after 6 months, baseline 27): 29 mEq/L | ALK P'TASE, August 2007 ([3]; after 6 months, baseline 36): 37 IU/L | HDL Ser Cholesterol, August 2007 ([3]; after 6 months, baseline 42): 42 mg/dL | Cl (Chloride), August 2007 ([3]; after 6 months, baseline 110): 108 mEq/L | Triglyceride, August 2007 ([3]; after 6 months, baseline 112): 102 mg/dL | LDL Cholesterol, August 2007 ([3]; after 6 months, baseline 138): 138 mg/dL | Na (Sodium), August 2007 ([3]; after 6 months, baseline 144): 143 mEq/L | Total Cholesterol, August 2007 ([3]; after 6 months, baseline 202): 203 mg/dL | Ending Weight May 2007 ([4]; 100 mg daily, three month period, starting weight 258): 234 pounds | Percent Reduction of weight ([4]; February 2007 to May 2007): 9.3% | stability / shelf life at room temperature [5]: exceeding one year | stability / shelf life at room temperature ([5]; listed as reduced water content oxaloacetate form): exceed one year | product decay ([5]; room temperatures, shelf life exceeding one year): less than 1% | decrease of amplitude of swings in fasting glucose [6]: 55% | drop of overall fasting glucose levels [6]: 8%

shelf life [5]: no shelf life | time of stability [5]: less than one-week's time
SMILES: O=C(O)CC(O)(O)C(=O)O [hydrated form of oxaloacetic acid]

SMILES: O=C(O)CC(=O)C(=O)O [oxaloacetic acid]
fraction in the enol form [7]: 11% | fraction in the hydrated form [7]: 5% | fraction in the keto form [7]: 84% | LD50 (mouse; acute study, taken with food): more than 5,000 mg OAA/Kg of mouse | LD50 (mouse; mouse, in vivo): above 5 g/kg of body weight | blood-brain barrier penetration [8]: can penetrate the blood-brain barrier | effect on cancer tissue [9]: differential massive debris within the cancer tissue | NOAEL at 90 days (in vivo): 500 mg/kg | time until most is moved from the blood stream into individual cells [10]: ≤ 120 min | side effects ([11]; 100 mg to 1,000 mg (2-10 mg/kg)): no negative side effects | blood glucose levels ([11]; 100 mg to 1,000 mg): dropped significantly in all patents | patients in whom urine glucose levels dropped ([11]; 100 mg to 1,000 mg): 19 out of the 21 | lived longer than the control group (older mice): 25% | lifespan of worms with non-functional alpha AMPK subunit (C. elegans): no increase in lifespan | lifespan of worms with non-functional alpha AMPK subunit (C. elegans; listed as OAA): will not increase the lifespan | lifespan of wild type worms subjected to calorie restriction (C. elegans; functional AMPK, calorie restriction plus OAA supplementation): do not have their lifespan increased | increase of lifespan (C. elegans): approximately 25% | increase of lifespan (C. elegans; listed as OAA): 25% | drop in triglyceride levels [12]: 10% | reduction in the amplitude of fasting blood glucose levels [12]: 55% | pancreas findings at 41 mg/kg of body weight (rats; 41 mg/kg): proliferation and hyperplasia of the islet cells | pancreas findings at 83 mg/kg of body weight (rats; 83 mg/kg): caused changes in pancreatic islets | time to decarboxylation ([5]; divalent cations in the fluid): within a day

SMILES: O=C([O-])CC(=O)C(=O)O.[Na+] [sodium oxaloacetate]
fraction in the enol form [7]: 11% | fraction in the hydrated form [7]: 5% | fraction in the keto form [7]: 84% | shelf life [5]: no shelf life
